Assay results from US10899738B2 (THE REGENTS OF THE UNIVERSITY OF MICHIGAN, priority 2016, dated 2021).
Like-named read-outs stand apart in the source and are kept apart here.

Experiments:
[1] = target: menin protein (Homo sapiens (Human), UniProt O00255); assay: biochemical; format: binding; conditions: FP competitive binding; menin protein 4 nM, FAM-MM2 probe 2 nM; read-out: Menin Binding Affinity IC50
Procedure, shortened: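 Test compounds displaced FAM-MM2 (2 nM) from 4 nM menin after 30 min equilibration at room temperature in PBS buffer containing bovine γ-globulin, 4% DMSO and Triton X-100. Binding was followed by fluorescence polarization. Competition curves were fitted by nonlinear regression to give IC50 and Ki.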

[2] = Cell growth inhibition, CellTiter-Glo Luminescent Cell Viability Assay; format: cell-based
Procedure, shortened: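 Cells seeded at 2,000/well with serially diluted compound and cultured 4 days at 37 °C, 5% CO2. Viability read by CellTiter-Glo luminescence; IC50 derived from dose-response.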

[3] = MOLM-13, 96 h, read-out: Cell Growth Inhibition IC50 (μM) MOLM13, MOLM13 cells, 4 days, CellTiter-Glo
[4] = MV4-11, 96 h, read-out: Cell Growth Inhibition IC50 (μM) MV4, 11, MV4, 11 cells, 4 days, CellTiter-Glo
[5] = MOLM-13, 96 h, MOLM13 cells, 4 days, CellTiter-Glo, read-out: Cell Growth Inhibition IC50 (μM) MOLM13
[6] = MV4-11, 96 h, MV4, 11 cells, 4 days, CellTiter-Glo, read-out: Cell Growth Inhibition IC50 (μM) MV4, 11

menin protein, sequence (O00255 whole entry): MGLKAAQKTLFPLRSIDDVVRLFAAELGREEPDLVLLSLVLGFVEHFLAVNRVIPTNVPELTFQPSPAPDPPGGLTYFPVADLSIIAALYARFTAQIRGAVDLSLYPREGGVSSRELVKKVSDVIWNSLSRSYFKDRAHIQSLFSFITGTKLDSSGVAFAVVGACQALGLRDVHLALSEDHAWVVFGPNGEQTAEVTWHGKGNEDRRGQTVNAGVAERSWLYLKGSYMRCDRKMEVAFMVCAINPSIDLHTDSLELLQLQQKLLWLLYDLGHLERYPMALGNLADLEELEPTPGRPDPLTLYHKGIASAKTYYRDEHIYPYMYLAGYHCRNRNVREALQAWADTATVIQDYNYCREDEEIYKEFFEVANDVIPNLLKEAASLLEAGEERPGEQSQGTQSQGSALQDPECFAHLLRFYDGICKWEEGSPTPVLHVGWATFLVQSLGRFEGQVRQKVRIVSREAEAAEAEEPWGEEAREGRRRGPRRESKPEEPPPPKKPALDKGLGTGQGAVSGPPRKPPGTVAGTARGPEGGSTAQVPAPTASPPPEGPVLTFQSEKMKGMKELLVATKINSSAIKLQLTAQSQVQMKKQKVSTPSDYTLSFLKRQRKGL

| SMILES | IC50 [1] [nM] | IC50 [2, 3] [µM] | IC50 [2, 4] [µM] | IC50 ([2]; read-out: Cell Growth Inhibition IC50 (μM) MOLM13, MOLM13 cells, 4 days, CellTiter-Glo) [µM] | IC50 ([2]; read-out: Cell Growth Inhibition IC50 (μM) MV4, 11, MV4, 11 cells, 4 days, CellTiter-Glo) [µM] | IC50 [2, 5] [µM] | IC50 [2, 6] [µM] |
| --- | --- | --- | --- | --- | --- | --- | --- |
| CNC(=O)O[C@H]1CCC[C@@H]1C(C#N)(c1ccccc1)C1CCN(CC2CN(c3ccc(S(=O)(=O)c4cnn(C)c4)cc3)C2)CC1 (mixture of isomers) [compound 240, rac-(1S,2R)-2-(cyano(1-((1-(4-((1-methyl-1H-pyrazol-4-yl)sulfonyl)phenyl)azetidin-3-yl)methyl)piperidin-4-yl)(phenyl)methyl) cyclopentyl methylcarbamate] | 9 | 0.54 | 0.2 |  |  |  |  |
| CCN1Cc2ccccc2C(C2CCN(CC3CN(c4ccc(S(=O)(=O)c5ccccc5)cc4)C3)CC2)([C@H]2CCC[C@@H]2NC(=O)NC)C1 (mixture of isomers) [compound 290, rac-1-((1S,2R)-2-(2-ethyl-4-(1-((1-(4-(phenylsulfonyl)phenyl)azetidin-3-yl)methyl)piperidin-4-yl)-1,2,3,4-tetrahydroisoquinolin-4-yl)cyclopentyl)-3-methylurea] | 9 | 0.32 | 0.11 |  |  |  |  |
| CN1Cc2ccccc2C(C2CCCC2)(C2CCN(CCCOc3ccc(C#N)cc3)CC2)C1 (stereo not drawn) [compound 23, 4-(3-(4-(4-cyclopentyl-2-methyl-1,2,3,4-tetrahydroisoquinolin-4-yl)piperidin-1-yl)propoxy)benzonitrile] | 54 | 5 | 1 ± 0.4 |  |  |  |  |
| CNC(=O)N[C@H]1CCC[C@@H]1C1(C2CCN(CC3CN(c4ccc(S(=O)(=O)C5CC5)cc4)C3)CC2)CN(C)Cc2ccccc21 (mixture of isomers) [compound 283, rac-1-((1S,2R)-2-(4-(1-((1-(4-(cyclopropylsulfonyl)phenyl)azetidin-3-yl)methyl)piperidin-4-yl)-2-methyl-1,2,3,4-tetrahydroisoquinolin-4-yl)cyclopentyl)-3-methylurea] | 10 | 0.53 | 0.21 |  |  |  |  |
| CNC(=O)O[C@H]1CCC[C@@H]1C(Cn1ccnc1)(c1ccccc1)C1CCN(CC2CN(c3ccc(S(=O)(=O)c4ccc(C(=O)O)cc4)cc3)C2)CC1 (mixture of isomers) [compound 362, rac-4-((4-(3-((4-(2-(1H-imidazol-1-yl)-1-((1R,2S)-2-((methylcarbamoyl)oxy)cyclopentyl)-1-phenylethyl)piperidin-1-yl)methyl)azetidin-1-yl)phenyl)sulfonyl)benzoic acid] | 8 |  |  | > 10 | 4.79 |  |  |
| CC(=O)N[C@H]1CCC[C@@H]1C1(C2CCN(CC3CN(c4ccc(S(=O)(=O)c5ccncc5)cc4)C3)CC2)CN(C)Cc2ccccc21 (mixture of isomers) [compound 271, rac-N-((1S,2R)-2-(2-methyl-4-(1-((1-(4-(pyridin-4-ylsulfonyl)phenyl)azetidin-3-yl)methyl)piperidin-4-yl)-1,2,3,4-tetrahydroisoquinolin-4-yl)cyclopentyl)acetamide] | 5 | 0.717 ± 0.002 | 0.123 ± 0.043 |  |  |  |  |
| CCc1nccn1CC(c1ccccc1)(C1CCN(CC2CN(c3ccc(C#N)cc3)C2)CC1)[C@@H]1CCC[C@H]1OC(=O)NC (mixture of isomers) [compound 409, rac-(1R,2S)-2-(1-(1-((1-(4-cyanophenyl)azetidin-3-yl)methyl)piperidin-4-yl)-2-(2-ethyl-1H-imidazol-1-yl)-1-phenylethyl)cyclopentyl methylcarbamate] | 116 | 1.6 | 1.7 |  |  |  |  |
| CCN1Cc2ccccc2C(C2CCCC2)(C2CCN(CC3CN(c4ccc(S(=O)(=O)c5ccnc6cnccc56)cc4)C3)CC2)C1 (stereo not drawn) [compound 158, 4-((4-(3-((4-(4-cyclopentyl-2-ethyl-1,2,3,4-tetrahydroisoquinolin-4-yl)piperidin-1-yl)methyl)azetidin-1-yl)phenyl)sulfonyl)-1,7-naphthyridine] | 8 |  |  |  |  | 1.56 | 0.8 |
| COC(=O)N[C@H]1CCC[C@@H]1C(C#N)(c1ccccc1)C1CCN(CC2CN(c3ccc(S(=O)(=O)c4cnn(C)c4)cc3)C2)CC1 (mixture of isomers) [Cpd. No. 349, methyl (rac-(1S,2R)-2-(cyano(1-((1-(4-((1-methyl-1H-pyrazol-4-yl)sulfonyl)phenyl)azetidin-3-yl)methyl)piperidin-4-yl)(phenyl)methyl)cyclopentyl)carbamate] | 15 | 0.87 | 0.44 |  |  |  |  |
| COC(=O)N[C@H]1CCC[C@@H]1C(C#N)(c1ccccc1)C1CCN(CC2CN(c3ccc(S(=O)(=O)c4ccc(F)cc4)cc3)C2)CC1 (mixture of isomers) [compound 394, methyl rac((1S,2R)-2-(cyano(1-((1-(4-((4-fluorophenyl)sulfonyl)phenyl)azetidin-3-yl)methyl)piperidin-4-yl)(phenyl)methyl)cyclopentyl) carbamate] | 15 | 1.94 | 0.43 |  |  |  |  |
| CNC(=O)N[C@H]1CCC[C@@H]1C(CN)(c1ccccc1)C1CCN(CC2CN(c3ccc(S(=O)(=O)c4ccccc4)cc3)C2)CC1 (mixture of isomers) [compound 321, rac-1-((1S,2R)-2-(2-amino-1-phenyl-1-(1-((1-(4-(phenylsulfonyl)phenyl)azetidin-3-yl)methyl)piperidin-4-yl)ethyl)cyclopentyl)-3-methylurea] | 4 | 1.25 | 0.73 |  |  |  |  |
| CCN1Cc2ccccc2C(C2CCCC2)(C2CCN(CC3CN(c4ccc(C#N)cc4)C3)CC2)C1 (stereo not drawn) [compound 46, 4-(3-((4-(4-cyclopentyl-2-ethyl-1,2,3,4-tetrahydroisoquinolin-4-yl)piperidin-1-yl)methyl)azetidin-1-yl)benzonitrile] | 23 |  |  |  |  | 5.1 ± 0.2 | 0.972 ± 0.558 |
| CNC(=O)O[C@@H]1CCC[C@H]1C(Cn1ccnc1C)(c1cccc(F)c1)C1CCN(CC2CN(c3ccc(S(=O)(=O)c4cnn(C)c4)cc3)C2)CC1 (mixture of isomers) [compound 410, rac-(1R,2S)-2-(1-(3-fluorophenyl)-2-(2-methyl-1H-imidazol-1-yl)-1-(1-((1-(4-((1-methyl-1H-pyrazol-4-yl)sulfonyl)phenyl)azetidin-3-yl)methyl)piperidin-4-yl)ethyl)cyclopentyl methylcarbamate] | 49 | 3.1 | 2.7 |  |  |  |  |
| COC(=O)N[C@H]1CCC[C@@H]1C(C#N)(c1ccccc1)C1CCN(CC2CN(c3ccc(S(=O)(=O)c4ccc(C(=O)O)cc4)cc3)C2)CC1 (mixture of isomers) [compound 351, rac-4-((4-(3-((4-(cyano((1R,2S)-2-((methoxycarbonyl)amino)cyclopentyl)(phenyl)methyl)piperidin-1-yl)methyl)azetidin-1-yl)phenyl)sulfonyl)benzoic acid] | 15 | 16.1 | 3.02 |  |  |  |  |
| CC(C)S(=O)(=O)c1ccc(N2CC(CN3CCC(C4(C5CCCC5)NCCc5ccccc54)CC3)C2)cc1 (stereo not drawn) [compound 134, 1-cyclopentyl-1-(1-((1-(4-(isopropylsulfonyl)phenyl)azetidin-3-yl)methyl)piperidin-4-yl)-1,2,3,4-tetrahydroisoquinoline] | 67 |  |  |  |  | 3.8 | 1.1 |
| CCN1Cc2ccccc2C(C2CCCC2)(C2CCN(CC3CN(c4ccc(S(=O)(=O)c5cnn(C)c5)cc4)C3)CC2)C1 (stereo not drawn) [compound 102, 4-cyclopentyl-2-ethyl-4-(1-((1-(4-((1-methyl-1H-pyrazol-4-yl)sulfonyl)phenyl)azetidin-3-yl)methyl)piperidin-4-yl)-1,2,3,4-tetrahydroisoquinoline] | 11 |  |  |  |  | 0.708 | 0.267 |
